Values after ≈ are worked out from the molar mass of the structure shown. Like-named read-outs stand apart in the source and are kept apart here. A value given as a limit tells only on which side of the number the result lay.

One series concerns Aspergillus niger. The experiment in a line: 95% growth inhibitory concentration, Aspergillus niger. The format is cell-based, Aspergillus niger IFO 9455. As to conditions: IFO9455, 72 h, read-out: 95% Growth inhibitory concentration, Aspergillus niger. How it is done:
(§1) Strains for use in test: Candida albicans, IFO 1594 Aspergillus niger, IFO 9455
(§2) Culture medium: Liquid Sabouraud's medium (maltose 40 g, proteose peptone 10 g, distilled water 1000 ml)
(§3) Positive control: amphotericin B (Sigma) 5-fluorocytosine (Wako Junyaku, Japan)
(§4) A sample was diluted with culture medium to vary concentrations and poured into test tubes each to contain 5 ml, and a platinum loop of spores was inoculated in each tube. After shaken cultivation at 37° C. for 3 days, formalin (0.5 ml) was added and well mixed. The mixture was centrifuged at 3500 rpm for 10 minutes to collect fungi, which were in turn dewatered on a filter paper, dried at 100° C. for one hour and weighed. The growth rate was determined by the following equation [formula] 95% growth-inhibitory concentration (up to 5% growth rate): a mean value of sample concentrations producing 95% growth inhibitory effects.

The subject of a further series is fungi. As to conditions: Japanese Patent Publication No. 263121/1987; cited from earlier work.
The subject of a further series is platelet aggregation. The conditions noted are these: literature; cited from earlier work.
Another series concerns Candida albicans. The experiment in a line: 95% growth inhibitory concentration, Candida albicans. The format is cell-based, Candida albicans IFO 1594. As to conditions: read-out: 95% Growth inhibitory concentration, Candida albicans. How it is done:
as §1, §2, §3
A culture resulting from shaken cultivation at 37° C. overnight was diluted 100-fold with the culture medium and used as seed culture.
A sample was diluted with the culture medium to vary concentrations and poured into test tubes each to contain 5 ml, and the seed culture (100 μl) was inoculated. After cultivation with shaking at 37° C. for 18 hours, formalin (0.5 ml) was added, thoroughly mixed, and diluted 10-fold with the culture medium. The resultant liquor was measured for absorbancy at 660 nm. The growth rate (%) was determined according to the equation [formula]
as §4

Series [1] can be described thus: one week toxicity test, intraperitoneal. The conditions noted are these: 5 male ICR mice of 5 weeks age, dose not given. The format is in vivo.
The mark [2] stands for this setting: Aspergillus niger IFO 9455, liquid Sabouraud's medium, 37° C., 3 days, dry weight, up to 5% growth rate, mean value.
Where [3] appears, read: IFO1594, Candida albicans IFO 1594, liquid Sabouraud's medium, 37° C., 18 hours, up to 5% growth rate, mean value.

Take `C=CCS(=O)(=O)CC=CSSCc1ccccc1` [Compound 16]: the IC95 in the series on Aspergillus niger (setting [2]) was 42.2 µg/mL (≈ 140 µM).

Turning to `C=CC[S+]([O-])SC=CCS(=O)(=O)CC=C` (stereo not shown) [Compound 7], in the series on Aspergillus niger (setting [2]), the IC95 worked out at 30.8 µg/mL (≈ 116 µM).

In the case of `C=CCSSC=CC[S+]([O-])CC=C` (stereo not shown) [ajoene], in the series with fungi, the antifungal activity entry was “has antifungal activity”. In the series on platelet aggregation, the “platelet aggregation inhibitory activity” value is “demonstrated to have platelet aggregation inhibitory activity”.

In the case of `CCOC(=O)CCCSSC=CC[S+]([O-])CCCC(=O)OCC` (stereo not shown) [Compound 10], the IC95 in the series on Aspergillus niger (setting [2]) turned out to be 80.4 µg/mL (≈ 210 µM).

Regarding `C[C@@H]1[C@H](O)[C@@H](C)/C=C/C=C/C=C/C=C/C=C/C=C/C=C/[C@H](O[C@@H]2O[C@H](C)[C@@H](O)[C@H](N)[C@@H]2O)C[C@@H]2O[C@](O)(C[C@@H](O)C[C@@H](O)[C@H](O)CC[C@@H](O)C[C@@H](O)CC(=O)O[C@H]1C)C[C@H](O)[C@H]2C(=O)O` [Amphotericin B, reference compound], the IC95 with Aspergillus niger (Aspergillus niger) is more than 0.8 µg/mL; in the series with Candida albicans (Candida albicans, IFO1594, 18 h), 0.2 µg/mL (≈ 0.216 µM).

On to `C=CCSSC=CCS(=O)(=O)CC=C` [Compound 1], for which the IC95 was 28.5 µg/mL (≈ 114 µM) in the series with Aspergillus niger (setting [2]) and 5.4 µg/mL (≈ 21.6 µM) with Candida albicans (setting [3]). In series [1], the “mortality after one week” value is listed as “no mortality was observed”.

As to `C=CC[S+]([O-])CC=CSSC` (stereo not shown) [Compound 17], the IC95 with Aspergillus niger (setting [2]) amounted to 49.1 µg/mL (≈ 236 µM); in the series on Candida albicans (setting [3]), 40.7 µg/mL (≈ 195 µM).

For the compound `Nc1nc(=O)[nH]cc1F` [5-fluorocytosine, reference compound], the IC95 with Aspergillus niger (setting [2]) is 80 µg/mL (≈ 620 µM); in the series with Candida albicans (setting [3]) it was 20 µg/mL (≈ 155 µM).

On to `C=CCSSC=CC[S+](C)[O-]` (stereo not shown) [Compound 5], for which, in the series with Aspergillus niger (setting [2]), the IC95 was found to be 57.3 µg/mL (≈ 275 µM).

For the compound `C=CCSSSC` [methylallyltrisulfide], in the series on platelet aggregation, the “platelet aggregation inhibitory activity” value is on record as “platelet aggregation inhibitory activity”.

The values are drawn from patent publication US4876281A, “Antifungal agents” (Wakunaga Seiyaku Kabushiki Kaisha, priority 1986, dated 1989).
